Results from article PMC3735939, “The low levels of eicosapentaenoic acid in rat brain phospholipids are maintained via multiple redundant mechanisms” (Journal of Lipid Research, 2013).
Several values for one entry are separate records, joined by “and”; a condition that tells them apart may be missing. Equal values may be shown once.

Assays:
[1] = Identification of radiolabeled FAs in brain phospholipids by HPLC and LSC after 14C-EPA infusion; format: in vivo, rat; conditions: for percent of total radiolabeled FAs: brain total phospholipids;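 as to radiolabeled FA composition: percent of radiolabeled FAs within each phospholipid class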
Method: (§1) Twenty-four hours postsurgery, a second catheter (iv catheter 24 gauge/0.75 inch, Angiocath™; Becton Dickinson) was implanted into the tail vein where rats received either vehicle or 10 mg/kg of MEP. Ten minutes post injection of vehicle or MEP, the tail vein catheter was connected to a syringe containing radiolabeled ^14C-palmitate (n = 8), ^14C-DHA (n = 6), or ^14C-EPA (n = 7) attached to a computer-controlled variable speed pump (PHD 22/2000; Harvard Apparatus, Holliston, MA). […] Each rat received a dose of 76 μCi ^14C-palmitate, 76 μCi ^14C-DHA, or 78 μCi ^14C-EPA. […] The radiotracer infusions continued until rats were euthanized. The brain was excised and cut sagittally. Both hemispheres were stored at −80°C for radioactive and biochemical analyses. Plasma was isolated from whole blood via microcentrifugation at 6,200 rpm (2,000 g) for 5 min and stored at −80°C. Total lipids from one brain hemisphere and from plasma were extracted by the method of Folch, Lees, and Sloane Stanley ([39]). Isolation of various neutral lipid and phospholipid classes from the total lipid extract was previously described by Chen, Liu, and Bazinet ([6]). FA methyl esters and radioactive acyl-CoA analysis were previously described by Chen, Liu, and Bazinet ([6]).

[2] = cited from earlier work
[3] = In vivo kinetics of FA incorporation and turnover in brain phospholipids (intravenous radiotracer infusion, kinetic model); design: species or system rat
Method: Twenty-four hours postsurgery, a second catheter (iv catheter 24 gauge/0.75 inch, Angiocath™; Becton Dickinson) was implanted into the tail vein where rats received either vehicle or 10 mg/kg of MEP. […] The radiotracers were infused for 5 min via the tail vein catheter at a rate of 0.223(1 + e^−19.2t) ml/min (t is infusion time in minutes) ([37]) which achieves a steady-state plasma radioactivity within 1 min ([18], [38]). […] During the 5 min infusion, blood samples were collected from the jugular vein at approximately 0, 0.25, 0.5, 0.75, 1.5, 3, 4, and 5 min while the unanesthetized rat was mobile in the infusion box with food and water. […] After 5 min, the rats were rapidly euthanized by head-focused high-energy microwave irradiation (13.5 kW for 1.6 s; Cober Electronics Inc., Stratford, CT). The radiotracer infusions continued until rats were euthanized. The brain was excised and cut sagittally. Both hemispheres were stored at −80°C for radioactive and biochemical analyses. Plasma was isolated from whole blood via microcentrifugation at 6,200 rpm (2,000 g) for 5 min and stored at −80°C.
The model for in vivo kinetics of brain FAs in rats has been previously described ([17], [18], [21], [23], [25], [37], [41]).
Because the infusion is 5 min, contributions of FA from de novo synthesis and esterified plasma FA are negligible ([18], [20], [23], [41]); thus only contributions from plasma unesterified FAs and acyl-CoA pools were considered in the calculation of λpalmitate, DHA, or EPA .

[4] = test system: mitochondrial FA β-oxidation; test: Radioactivity in brain aqueous fraction (marker of β-oxidation) after 5 min intravenous 14C-tracer infusion; format: in vivo, rat; conditions: vehicle injection; 5 min iv infusion of tracer
Method: as §1, with “([6]).” for “([6]). FA methyl esters and radioactive acyl-CoA analysis were previously described by Chen, Liu, and Bazinet ([6]).”

[5] = Radioactivity in brain lipid fractions after 5 min intravenous 14C-tracer infusion (TLC, LSC); format: in vivo, rat; conditions: not adjusted for percent composition of 14C-EPA
Method: as §1

[6] = cited from earlier work; remark: listed apart in the source

## CC/C=C\C/C=C\C/C=C\C/C=C\C/C=C\CCCC(=O)O [EPA, eicosapentaenoic acid]
[1]; ChoGpl, MEP-treated rats
  radiolabeled FA composition: 66%
[1]; ChoGpl, vehicle-treated rats
  radiolabeled FA composition: 65%
[1]; EtnGpl, MEP-treated rats
  radiolabeled FA composition: 25%
[1]; EtnGpl, vehicle-treated rats
  radiolabeled FA composition: 24%
[1]; PtdIns, MEP-treated rats
  radiolabeled FA composition: 65%
[1]; PtdIns, vehicle-treated rats
  radiolabeled FA composition: 66%
[1]; PtdSer, MEP-treated rats
  radiolabeled FA composition: 54%
[1]; PtdSer, vehicle-treated rats
  radiolabeled FA composition: 44%
[1]; MEP-treated rats
  percent of total radiolabeled FAs: 56%
[1]; vehicle-treated rats
  percent of total radiolabeled FAs: 62%
[2]
  Jout net rate of loss from brain phospholipids: 16 nmol/g/day
  loss t1/2 from brain phospholipids: 5 days
  rate of loss from brain phospholipids: 14 % per day
[3]; ChoGpl, MEP
  FFA rate of turnover: 28 ± 4.5 %/day
  JFA net incorporation rate from brain acyl-CoA: 16 ± 2.3 nmol/g/day
  Jin net incorporation rate from plasma unesterified FA: 3.7 ± 0.31^! nmol/g/day
[3]; ChoGpl, Vehicle
  FFA rate of turnover: 46 ± 6.9 %/day
  JFA net incorporation rate from brain acyl-CoA: 23 ± 3.3 nmol/g/day
  Jin net incorporation rate from plasma unesterified FA: 2.8 ± 0.55 nmol/g/day
[3]; EtnGpl, MEP
  FFA rate of turnover: 9.5 ± 3.3 %/day
  JFA net incorporation rate from brain acyl-CoA: 5.4 ± 1.4 nmol/g/day
  Jin net incorporation rate from plasma unesterified FA: 1.2 ± 0.17 nmol/g/day
[3]; EtnGpl, Vehicle
  FFA rate of turnover: 8.4 ± 0.81 %/day
  JFA net incorporation rate from brain acyl-CoA: 6.4 ± 1.3 nmol/g/day
  Jin net incorporation rate from plasma unesterified FA: 0.78 ± 0.19 nmol/g/day
[3]; MEP
  λ dilution factor: 0.24 ± 0.022
[3]; PtdIns, MEP
  FFA rate of turnover: 17 ± 6.6 %/day
  JFA net incorporation rate from brain acyl-CoA: 3.0 ± 1.4 nmol/g/day
  Jin net incorporation rate from plasma unesterified FA: 0.73 ± 0.41 nmol/g/day
[3]; PtdIns, Vehicle
  FFA rate of turnover: 24 ± 1.7 %/day
  JFA net incorporation rate from brain acyl-CoA: 4.5 ± 0.2 nmol/g/day
  Jin net incorporation rate from plasma unesterified FA: 0.52 ± 0.087 nmol/g/day
[3]; PtdSer, MEP
  FFA rate of turnover: 3.1 ± 0.43 %/day
  JFA net incorporation rate from brain acyl-CoA: 1.2 ± 0.13 nmol/g/day
  Jin net incorporation rate from plasma unesterified FA: 0.29 ± 0.057 nmol/g/day
[3]; PtdSer, Vehicle
  FFA rate of turnover: 3.1 ± 0.56 %/day
  JFA net incorporation rate from brain acyl-CoA: 1.4 ± 0.36 nmol/g/day
  Jin net incorporation rate from plasma unesterified FA: 0.17 ± 0.055 nmol/g/day
[3]; Total PL, MEP
  FFA rate of turnover: 17 ± 2.3 %/day
  JFA net incorporation rate from brain acyl-CoA: 31 ± 4.8 nmol/g/day
  Jin net incorporation rate from plasma unesterified FA: 7.3 ± 0.7^! nmol/g/day
[3]; Total PL, Vehicle
  FFA rate of turnover: 21 %/day and 21 ± 2.9 %/day
  JFA net incorporation rate from brain acyl-CoA: 47 ± 5.7 nmol/g/day
  Jin net incorporation rate from plasma unesterified FA: 5.7 nmol/g/day and 5.7 ± 1.1 nmol/g/day
[3]; rat, in vivo
  Jin as percent of the Jout: 36%
  recycling into brain phospholipids, fold lower than DHA: 154 fold
[3]; vehicle
  λ dilution factor: 0.12 ± 0.014 and 0.12 ± 0.01
[4]
  radioactivity of brain aqueous fraction: 21 nCi/g brain
[5]; MEP
  total radioactivity in brain total phospholipids: 22 ± 0.6 nCi/g brain
[5]; vehicle
  total radioactivity in brain total phospholipids: 17 ± 0.9 nCi/g brain

## CC/C=C\C/C=C\C/C=C\C/C=C\C/C=C\C/C=C\CCC(=O)O [DHA, docosahexaenoic acid]
[6]
  Jin, reported: 150 to 190 nmol/g/day
[1]; ChoGpl, MEP-treated rats
  radiolabeled FA composition: 4%
[1]; ChoGpl, vehicle-treated rats
  radiolabeled FA composition: 11%
[1]; EtnGpl, MEP-treated rats
  radiolabeled FA composition: 14%
[1]; EtnGpl, vehicle-treated rats
  radiolabeled FA composition: 29%
[1]; MEP-treated rats
  percent of total radiolabeled FAs: 3%
[1]; vehicle-treated rats
  percent of total radiolabeled FAs: 10%
[2]
  Jout net rate of loss from brain phospholipids: 58 to 257 nmol/g/day
  loss t1/2 from brain phospholipids: 33 days
  rate of loss from brain phospholipids: 2 % per day
[3]; ChoGpl, MEP
  FFA rate of turnover: 90 ± 20 %/day
  JFA net incorporation rate from brain acyl-CoA: 1,234 ± 344 nmol/g/day
  Jin net incorporation rate from plasma unesterified FA: 4.3 ± 0.38 nmol/g/day
[3]; ChoGpl, Vehicle
  FFA rate of turnover: 150 ± 14 %/day
  JFA net incorporation rate from brain acyl-CoA: 2,146 ± 225 nmol/g/day
  Jin net incorporation rate from plasma unesterified FA: 5.2 ± 0.62 nmol/g/day
[3]; EtnGpl, MEP
  FFA rate of turnover: 37 ± 9.6 %/day
  JFA net incorporation rate from brain acyl-CoA: 2,030 ± 492 nmol/g/day
  Jin net incorporation rate from plasma unesterified FA: 7.2 ± 1.2 nmol/g/day
[3]; EtnGpl, Vehicle
  FFA rate of turnover: 55 ± 5.4 %/day
  JFA net incorporation rate from brain acyl-CoA: 3,233 ± 184 nmol/g/day
  Jin net incorporation rate from plasma unesterified FA: 7.9 ± 1.4 nmol/g/day
[3]; PtdIns, MEP
  FFA rate of turnover: 308 ± 105 %/day
  JFA net incorporation rate from brain acyl-CoA: 477 ± 106 nmol/g/day
  Jin net incorporation rate from plasma unesterified FA: 1.7 ± 0.3 nmol/g/day
[3]; PtdIns, Vehicle
  FFA rate of turnover: 458 ± 156 %/day
  JFA net incorporation rate from brain acyl-CoA: 688 ± 144 nmol/g/day
  Jin net incorporation rate from plasma unesterified FA: 1.8 ± 0.078 nmol/g/day
[3]; PtdSer, MEP
  FFA rate of turnover: 8.4 ± 3.1 %/day
  JFA net incorporation rate from brain acyl-CoA: 198 ± 79 nmol/g/day
  Jin net incorporation rate from plasma unesterified FA: 0.68 ± 0.11 nmol/g/day
[3]; PtdSer, Vehicle
  FFA rate of turnover: 9.2 ± 2.1 %/day
  JFA net incorporation rate from brain acyl-CoA: 237 ± 50 nmol/g/day
  Jin net incorporation rate from plasma unesterified FA: 0.56 ± 0.053 nmol/g/day
[3]; Total PL, MEP
  FFA rate of turnover: 51 ± 10 %/day
  JFA net incorporation rate from brain acyl-CoA: 4,390 ± 988 nmol/g/day
  Jin net incorporation rate from plasma unesterified FA: 16 ± 1.2 nmol/g/day
[3]; Total PL, Vehicle
  FFA rate of turnover: 75 %/day and 75 ± 7.7 %/day
  JFA net incorporation rate from brain acyl-CoA: 7,259 ± 958 nmol/g/day
  Jin net incorporation rate from plasma unesterified FA: 17 nmol/g/day and 17 ± 1.8 nmol/g/day
[3]; rat, in vivo
  Jin, percent lower than reported Jin: 89–91%
  fold difference in λ between DHA and EPA: 50 fold
[3]; vehicle
  λ dilution factor: 0.0024 ± 0.0003
[3]; vehicle injection
  FFA into brain total phospholipids, fold higher than EPA: 4 fold
  Jin into brain total phospholipids, fold higher than EPA: 3 fold
  t1/2, fold lower than EPA: 4 fold
[4]
  radioactivity of brain aqueous fraction: 17 nCi/g brain
